Patent US20260273072A1, “NOVEL PLK1 DEGRADATION INDUCING COMPOUND” (UPPTHERA, INC., priority 2023, published 2026)

Columns and labels:
Type in all cases: cell-based
NCI-H69 cell line = experiment: Cell viability assay for NCI-H69 cell line (EZ-Cytox); conditions: Homo sapiens, NCI-H69, 120 h; H69 cells, 5 days, 3000 nM to 0.46 nM
Summary of the method: (§1)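 Human SCLC lines cultured with compound for 5 days in a CO2 incubator; viability read by EZ-Cytox absorbance at 450 nm after 3 min shaking. IC50 reported in activity bins (A: <30 nM up to E: <400 nM).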

NCI-H526 cell line = experiment: Cell viability assay for NCI-H526 cell line (EZ-Cytox); conditions: Homo sapiens, NCI-H526, 120 h; H526 cells, 5 days, 3000 nM to 0.46 nM
Summary of the method: as §1

PLK1 = target: T1, PLK1 (Homo sapiens, UniProt P53350); experiment: Luciferase assay for PLK1 in HeLa LgBit (Plk1-HiBit KI) cell line; conditions: 300 nM compound, luminescence after 9 hours
T1 construct: endogenous in cells; host or cells: HeLa LgBit (Plk1-HiBit KI): HeLa stably expressing LgBit, with a CRISPR/Cas9 knock-in of HiBit at the endogenous PLK1 locus
Summary of the method: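 HeLa LgBit cells with endogenous PLK1 C-terminally HiBit-tagged by CRISPR knock-in; released from 24 h 2 mM thymidine block, seeded, grown 18 h. Compounds at 300 nM with Endurazine substrate; luminescence (470-480 nm) tracked in real time, expressed as ratio to DMSO.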

MRC-5 cell line = experiment: Cell viability assay for MRC-5 cell line (EZ-Cytox); conditions: Homo sapiens, MRC5, 120 h; MRC-5 normal cell line, 5 days, 10000 nM to 1.52 nM; read-out: Activity: IC50 value, cell viability, MRC-5 cell line (Exemplary Compounds)
Method: 4. Cell Viability Assay for MRC-5 Cell Line
(1) Culture of MRC-5 Cell Line
The MRC-5 cell line was purchased from KCLB. Passage of cultured cells was maintained within P15.
(2) Treatment of Compounds of the Present Invention
Then, it was cultured in 37° C. CO2 incubator (Thermo Fisher Scientific) for 5 days.
(3) Cytotoxicity Experiment
CO2 incubator for 4 hours.

T1 sequence (P53350 whole entry): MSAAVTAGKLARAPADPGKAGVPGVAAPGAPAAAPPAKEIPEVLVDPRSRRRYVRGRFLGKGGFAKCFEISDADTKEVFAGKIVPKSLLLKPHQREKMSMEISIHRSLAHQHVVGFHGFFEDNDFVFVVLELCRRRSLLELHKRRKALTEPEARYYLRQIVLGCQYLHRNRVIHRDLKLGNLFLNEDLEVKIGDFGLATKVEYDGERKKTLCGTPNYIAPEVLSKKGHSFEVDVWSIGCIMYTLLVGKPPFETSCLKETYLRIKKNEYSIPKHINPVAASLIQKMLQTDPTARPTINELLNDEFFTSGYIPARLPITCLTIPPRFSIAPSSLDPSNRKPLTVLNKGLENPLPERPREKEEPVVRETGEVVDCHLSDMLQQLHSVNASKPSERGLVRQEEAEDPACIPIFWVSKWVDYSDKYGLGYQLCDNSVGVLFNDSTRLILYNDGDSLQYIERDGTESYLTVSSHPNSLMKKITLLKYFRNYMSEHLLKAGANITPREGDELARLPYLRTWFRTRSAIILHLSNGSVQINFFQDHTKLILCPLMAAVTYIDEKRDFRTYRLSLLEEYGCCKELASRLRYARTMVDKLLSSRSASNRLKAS

| SMILES | Activity: ratio of the luminescence value of compound treatment group to DMSO treatment group (PLK1) | IC50 (NCI-H69 cell line) | IC50 (NCI-H526 cell line) | IC50 (MRC-5 cell line) |
| --- | --- | --- | --- | --- |
| COc1cc(C(=O)NN2CCC(CCN3CCN(c4cc(OC)c(NC5CCC(=O)NC5=O)cc4F)CC3)CC2)ncc1Nc1ncc2c(n1)N(C(C)C)CC(F)(F)C(=O)N2C (stereo not shown) [Compound 46, 5-((7,7-difluoro-9-isopropyl-5-methyl-6-oxo-8H-pyrimido[4,5-b][1,4]diazepin-2-yl)amino)-N-(4-(2-(4-(4-((2,6-dioxo-3-piperidyl)amino)-2-fluoro-5-methoxy-phenyl)piperazin-1-yl)ethyl)-1-piperidyl)-4-methoxy-pyridine-2-carboxamide] | ++ (++: <0.5) | < 0.1 µM | < 0.05 µM | > 10 µM |
| COc1cc(C(=O)NC2CCC(N(C)CC3CCN(c4cnc(C5CCC(=O)NC5=O)cc4C)CC3)CC2)ccc1Nc1ncc2c(n1)N(C(C)C)CC(F)(F)C(=O)N2C (stereo not shown) [Compound 15, 4-((7,7-difluoro-9-isopropyl-5-methyl-6-oxo-6,7,8,9-tetrahydro-5H-pyrimido[4,5-b][1,4]diazepin-2-yl)amino)-N-((1r,4r)-4-(((1-(6-(2,6-dioxopiperidin-3-yl)-4-methylpyridin-3-yl)piperidin-4-yl)methyl)(methyl)amino)cyclohexyl)-3-methoxybenzamide] | +++ (+++: <0.3) | < 0.03 µM | < 0.03 µM | > 10 µM |
| COc1cc(C(=O)NC2CCC(N(C)CC3CCN(c4cnc(C5CCC(=O)NC5=O)cc4F)CC3)CC2)ccc1Nc1ncc2c(n1)N(C1CCCC1)CC(F)(F)C(=O)N2C (stereo not shown) [Compound 20, 4-((9-cyclopentyl-7,7-difluoro-5-methyl-6-oxo-6,7,8,9-tetrahydro-5H-pyrimido[4,5-b][1,4]diazepin-2-yl)amino)-N-((1r,4r)-4-(((1-(6-(2,6-dioxopiperidin-3-yl)-4-fluoropyridin-3-yl)piperidin-4-yl)methyl)(methyl)amino)cyclohexyl)-3-methoxybenzamide] | +++ (+++: <0.3) | < 0.03 µM | < 0.03 µM | > 10 µM |
| COc1cc(C(=O)NN2CCC(CCN3CCN(c4cc(F)c(NC5CCC(=O)NC5=O)cc4F)CC3)CC2)ccc1Nc1ncc2c(n1)N(C(C)C)CC(F)(F)C(=O)N2C (stereo not shown) [Compound 58, 4-((7,7-difluoro-9-isopropyl-5-methyl-6-oxo-6,7,8,9-tetrahydro-5H-pyrimido[4,5-b][1,4]diazepin-2-yl)amino)-N-(4-(2-(4-(4-((2,6-dioxopiperidin-3-yl)amino)-2,5-difluorophenyl)piperazin-1-yl)ethyl)piperidin-1-yl)-3-methoxybenzamide] | +++ (+++: <0.3) | < 0.03 µM | < 0.03 µM | > 10 µM |
| COc1cc(C(=O)NN2CCC(C3CCN(c4ccc(C5CCC(=O)NC5=O)cc4F)C3)CC2)ccc1Nc1ncc2c(n1)N(C(C)C)CC(F)(F)C(=O)N2C (stereo not shown) [Compound 2, 4-((7,7-difluoro-9-isopropyl-5-methyl-6-oxo-6,7,8,9-tetrahydro-5H-pyrimido[4,5-b][1,4]diazepin-2-yl)amino)-N-(4-(1-(4-(2,6-dioxopiperidin-3-yl)-2-fluorophenyl)pyrrolidin-3-yl)piperidin-1-yl)-3-methoxybenzamide] | ++ (++: <0.5) | < 0.1 µM | < 0.05 µM | > 10 µM |

Further lines, with some results ahead:

| Activity: ratio of the luminescence value of compound treatment group to DMSO treatment group (PLK1) | SMILES | IC50 (NCI-H69 cell line) | IC50 (NCI-H526 cell line) | IC50 (MRC-5 cell line) |
| --- | --- | --- | --- | --- |
| +++ (+++: <0.3) | COc1cc(C(=O)NN2CCC(CCN3CCN(c4cc(C)c(NC5CCC(=O)NC5=O)cc4F)CC3)CC2)ccc1Nc1ncc2c(n1)N(C1CCCC1)CC(F)(F)C(=O)N2C (stereo not shown) [Compound 74, 4-((9-cyclopentyl-7,7-difluoro-5-methyl-6-oxo-6,7,8,9-tetrahydro-5H-pyrimido[4,5-b][1,4]diazepin-2-yl)amino)-N-(4-(2-(4-(4-((2,6-dioxopiperidin-3-yl)amino)-2-fluoro-5-methylphenyl)piperazin-1-yl)ethyl)piperidin-1-yl)-3-methoxybenzamide] | < 0.03 µM | < 0.03 µM | > 10 µM |
| ++ (++: <0.5) | COc1cc(C(=O)NN2CCC(CCN3CCN(c4ccc(NC5CCC(=O)NC5=O)c(F)c4)CC3)CC2)ccc1Nc1ncc2c(n1)N(C1CCCC1)CC(F)(F)C(=O)N2C (stereo not shown) [Compound 34, 4-((9-cyclopentyl-7,7-difluoro-5-methyl-6-oxo-6,7,8,9-tetrahydro-5H-pyrimido[4,5-b][1,4]diazepin-2-yl)amino)-N-(4-(2-(4-(4-((2,6-dioxopiperidin-3-yl)amino)-3-fluorophenyl)piperazin-1-yl)ethyl)piperidin-1-yl)-3-methoxybenzamide] | < 0.03 µM | < 0.03 µM | > 10 µM |
| +++ (+++: <0.3) | COc1cc(C(=O)NN2CCC(CCN3CCN(c4ccc(NC5CCC(=O)NC5=O)c(OC)c4F)CC3)CC2)ccc1Nc1ncc2c(n1)N(C1CCCC1)CC(F)(F)C(=O)N2C (stereo not shown) [Compound 54, 4-((9-cyclopentyl-7,7-difluoro-5-methyl-6-oxo-6,7,8,9-tetrahydro-5H-pyrimido[4,5-b][1,4]diazepin-2-yl)amino)-N-(4-(2-(4-(4-((2,6-dioxopiperidin-3-yl)amino)-2-fluoro-3-methoxyphenyl)piperazin-1-yl)ethyl)piperidin-1-yl)-3-methoxybenzamide] | < 0.03 µM | < 0.03 µM | > 10 µM |
| ++ (++: <0.5) | COc1cc(C(=O)NN2CCC(CCN3CCN(c4ccc(NC5CCC(=O)NC5=O)nc4)CC3)CC2)ccc1Nc1ncc2c(n1)N(C1CCCC1)CC(F)(F)C(=O)N2C (stereo not shown) [Compound 77, 4-((9-cyclopentyl-7,7-difluoro-5-methyl-6-oxo-6,7,8,9-tetrahydro-5H-pyrimido[4,5-b][1,4]diazepin-2-yl)amino)-N-(4-(2-(4-(6-((2,6-dioxopiperidin-3-yl)amino)pyridin-3-yl)piperazin-1-yl)ethyl)piperidin-1-yl)-3-methoxybenzamide] | < 0.03 µM | < 0.03 µM | > 10 µM |
| ++ (++: <0.5) | COc1cc(C(=O)NC2CCN(CCN3CCN(c4cc(OC)c(NC5CCC(=O)NC5=O)cc4F)CC3)CC2)ccc1Nc1ncc2c(n1)N(C1CCCC1)CC(F)(F)C(=O)N2C (stereo not shown) [Compound 48, 4-((9-cyclopentyl-7,7-difluoro-5-methyl-6-oxo-6,7,8,9-tetrahydro-5H-pyrimido[4,5-b][1,4]diazepin-2-yl)amino)-N-(1-(2-(4-(4-((2,6-dioxopiperidin-3-yl)amino)-2-fluoro-5-methoxyphenyl)piperazin-1-yl)ethyl)piperidin-4-yl)-3-methoxybenzamide] | < 0.05 µM | < 0.03 µM | > 10 µM |
